Data reported in patent publication US5288709A, “Erythromycin derivatives” (priority 1991, dated 1994).
In brackets after ≈: the same amount, converted by molar mass. Like-named read-outs stand apart in the source and are kept apart here.

Tests used:
Experiment in all cases: In-vitro antimicrobial activity primary screen (agar dilution MIC)
Format in all cases: cell-based
[1] = test system: Enterobacter aerogenes ATCC 13048; conditions: Klebsiella aerogenes, ATCC13048; Enterobacter aerogenes ATCC 13048; BHI agar, 20-24 h; read-out: MIC
Procedure, shortened: (§1)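 Agar dilution in BHI agar, 12 successive aqueous dilutions; Steers replicator inoculum 1:100, 1:10 for slow-growing Streptococcus; 35-37° C, 20-24 h. Drug-free plates at start and end; same-class reference drug plate. MIC = lowest conc with no growth/slight haze/sparse colonies.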

[2] = test system: Enterococcus faecium ATCC 8043; conditions: ATCC8043; Enterococcus faecium ATCC 8043; BHI agar, 20-24 h; read-out: MIC
Procedure, shortened: as §1

[3] = test system: Escherichia coli DC-2; conditions: DC2; Escherichia coli DC-2; BHI agar, 20-24 h; read-out: MIC
Procedure, shortened: as §1

[4] = test system: Escherichia coli H560; conditions: Escherichia coli H560, BHI agar, 20-24 h
Procedure, shortened: as §1

[5] = test system: Escherichia coli JUHL; conditions: Escherichia coli JUHL; BHI agar, 20-24 h; read-out: MIC
Procedure, shortened: as §1

[6] = test system: Escherichia coli SS; conditions: BHI agar, 20-24 h
Procedure, shortened: as §1

[7] = test system: Klebsiella pneumoniae ATCC 8045
Procedure, shortened: as §1

[8] = test system: Micrococcus luteus ATCC 4698; conditions: 20-24 h
Procedure, shortened: as §1

[9] = test system: Micrococcus luteus ATCC 9341; conditions: Micrococcus luteus, ATCC9341, 24 h, BHI agar, 20-24 h
Procedure, shortened: as §1

[10] = test system: Providencia stuartii CMX 640
Procedure, shortened: as §1

[11] = test system: Pseudomonas aeruginosa A5007
Procedure, shortened: as §1

[12] = test system: Pseudomonas aeruginosa BMH10; conditions: Pseudomonas aeruginosa, BMH10, 24 h, BHI agar, 20-24 h
Procedure, shortened: as §1

[13] = test system: Pseudomonas aeruginosa K799/61; conditions: Pseudomonas aeruginosa K799/61; BHI agar, 20-24 h; read-out: MIC
Procedure, shortened: as §1

[14] = test system: Pseudomonas aeruginosa K799/WT; conditions: Pseudomonas aeruginosa K799/WT, BHI agar, 20-24 h
Procedure, shortened: as §1

[15] = test system: Pseudomonas cepacia 2961; conditions: BHI agar, 20-24 h
Procedure, shortened: as §1

[16] = test system: Staphylococcus aureus 45 RAR2; conditions: Staphylococcus aureus, 45RAR2, 24 h, BHI agar, 20-24 h
Procedure, shortened: as §1

[17] = test system: Staphylococcus aureus 45; conditions: BHI agar, 20-24 h, read-out: MIC
Procedure, shortened: as §1

[18] = test system: Staphylococcus aureus 642A; conditions: BHI agar, 20-24 h, read-out: MIC
Procedure, shortened: as §1

[19] = test system: Staphylococcus aureus A5177; conditions: Staphylococcus aureus, A5177, 24 h
Procedure, shortened: as §1

[20] = test system: Staphylococcus aureus ATCC 6538P; conditions: ATCC6538P, BHI agar, 20-24 h
Procedure, shortened: as §1

[21] = test system: Staphylococcus aureus NCTC 10649; conditions: NCTC10649, BHI agar, 20-24 h, read-out: MIC
Procedure, shortened: as §1

[22] = test system: Staphylococcus epidermidis 3519; conditions: BHI agar, 20-24 h, read-out: MIC
Procedure, shortened: as §1

[23] = test system: Streptococcus agalactiae CMX 508; conditions: CMX508, BHI agar, 20-24 h, read-out: MIC
Procedure, shortened: as §1

[24] = test system: Streptococcus bovis A5169; conditions: Streptococcus equinus, A5169, 24 h, BHI agar, 20-24 h
Procedure, shortened: as §1

[25] = test system: Streptococcus pyrogenes 2548 INDUC; conditions: BHI agar, 20-24 h, read-out: MIC
Procedure, shortened: as §1

[26] = test system: Streptococcus pyrogenes EES61; conditions: BHI agar, 20-24 h, read-out: MIC
Procedure, shortened: as §1

[27] = test system: Staphylococcus aureus CMX 553; conditions: Staphylococcus aureus, CMX553, 24 h, BHI agar, 20-24 h, read-out: MIC
Procedure, shortened: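 MIC is read as the lowest compound level yielding no growth, slight haze or sparse colonies on the inoculum spot, relative to a drug-free plate. Strains were replicator-inoculated (1:100 dilution) onto BHI agar plates holding twelve dilutions and held at 35-37 °C for 20-24 h, with erythromycin A as comparator.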

[28] = test system: Acinetobacter SP CMX 669; conditions: Acinetobacter, SPCMX669, 24 h
Procedure, shortened: as §1

| SMILES | MIC [1] | MIC [2] | MIC [3] | MIC [5] | MIC [9] | MIC [12] | MIC [13] | MIC [16] | MIC [17] | MIC [18] | MIC [21] | MIC [22] | MIC [23] | MIC [24] | MIC [25] | MIC [26] | MIC [27] | also measured |
| --- | --- | --- | --- | --- | --- | --- | --- | --- | --- | --- | --- | --- | --- | --- | --- | --- | --- | --- |
| CC[C@H]1OC(=O)[C@H](C)[C@@H](O[C@H]2C[C@@](C)(OC)[C@@H](OC(N)=O)[C@H](C)O2)[C@H](C)[C@@H](O[C@@H]2O[C@H](C)C[C@H](N(C)C)[C@H]2O)[C@](C)(O)C[C@@H](C)[C@@H]2O[C@@]1(C)C(=O)[C@H]2C [Example 31, (9S)-4"-O-Aminocarbonyl-9-deoxo-11,12-dideoxy-9,12-epoxy-11-oxoerythromycinA] | 100 µg/mL (≈ 132 µM) | 0.05 µg/mL (≈ 0.0659 µM) | 100 µg/mL (≈ 132 µM) | 100 µg/mL (≈ 132 µM) | 0.02 µg/mL (≈ 0.0264 µM) | 50 µg/mL (≈ 65.9 µM) | 1.56 µg/mL (≈ 2.06 µM) | 0.05 µg/mL (≈ 0.0659 µM) | 0.05 µg/mL (≈ 0.0659 µM) | 0.05 µg/mL (≈ 0.0659 µM) | 0.05 µg/mL (≈ 0.0659 µM) | 0.05 µg/mL (≈ 0.0659 µM) | 0.02 µg/mL (≈ 0.0264 µM) | 0.05 µg/mL (≈ 0.0659 µM) | 0.78 µg/mL (≈ 1.03 µM) | 0.02 µg/mL (≈ 0.0264 µM) | 0.05 µg/mL (≈ 0.0659 µM) | MIC ([4]; Escherichia coli, H560, 24 h): 50 µg/mL (≈ 65.9 µM); MIC ([6]; Escherichia coli, 24 h): 0.2 µg/mL (≈ 0.264 µM); MIC ([7]; ATCC8045, Klebsiella pneumoniae ATCC 8045, BHI agar, 20-24 h, read-out: MIC): 100 µg/mL (≈ 132 µM); MIC ([8]; ATCC4698, BHI agar, read-out: MIC): 0.05 µg/mL (≈ 0.0659 µM); MIC ([10]; CMX640, Providencia stuartii CMX 640, BHI agar, 20-24 h, read-out: MIC): > 100 µg/mL; MIC ([11]; Pseudomonas aeruginosa A5007, BHI agar, 20-24 h, read-out: MIC): > 100 µg/mL; MIC ([14]; read-out: MIC): 100 µg/mL (≈ 132 µM); MIC ([15]; Burkholderia cepacia, read-out: MIC): > 100 µg/mL; MIC [19]: 50 µg/mL (≈ 65.9 µM); MIC ([20]; read-out: MIC): 0.05 µg/mL (≈ 0.0659 µM) |
| CC[C@H]1OC(=O)[C@H](C)[C@@H](O[C@H]2C[C@@](C)(OC)[C@H](N)[C@H](C)O2)[C@H](C)[C@@H](O[C@@H]2O[C@H](C)C[C@H](N(C)C)[C@H]2O)[C@](C)(O)C[C@@H](C)[C@@H]2O[C@@]1(C)[C@@H](N)[C@H]2C [Example 20, (4"R,9S,11S)-4",11-Diamino-9-deoxo-4",11,12-trideoxy-9,12-epoxyerythromycinA] | 12.5 µg/mL (≈ 17.5 µM) | 0.05 µg/mL (≈ 0.0698 µM) | 3.1 µg/mL (≈ 4.33 µM) | 3.1 µg/mL (≈ 4.33 µM) | 0.02 µg/mL (≈ 0.0279 µM) | 25 µg/mL (≈ 34.9 µM) | 0.78 µg/mL (≈ 1.09 µM) | 0.39 µg/mL (≈ 0.545 µM) | 0.2 µg/mL (≈ 0.279 µM) | 0.39 µg/mL (≈ 0.545 µM) | 0.39 µg/mL (≈ 0.545 µM) | 0.2 µg/mL (≈ 0.279 µM) | 0.02 µg/mL (≈ 0.0279 µM) | ≤ 0.005 µg/mL | 0.78 µg/mL (≈ 1.09 µM) | ≤ 0.005 µg/mL | 0.2 µg/mL (≈ 0.279 µM) | MIC [28]: 1.56 µg/mL (≈ 2.18 µM); MIC ([4]; read-out: MIC): 1.56 µg/mL (≈ 2.18 µM); MIC ([6]; read-out: MIC): 0.05 µg/mL (≈ 0.0698 µM); MIC ([7]; Klebsiella pneumoniae, ATCC8045, 24 h): 1.56 µg/mL (≈ 2.18 µM); MIC ([8]; Micrococcus luteus, ATCC4698, 24 h, BHI agar): 0.1 µg/mL (≈ 0.14 µM); MIC ([10]; Providencia stuartii, CMX640, 24 h): > 100 µg/mL; MIC ([11]; Pseudomonas aeruginosa, A5007, 24 h): > 100 µg/mL; MIC ([14]; Pseudomonas aeruginosa, K799/WT, 24 h): 50 µg/mL (≈ 69.8 µM); MIC ([15]; Burkholderia cepacia, 2961, 24 h): > 100 µg/mL; MIC ([19]; Staphylococcus aureus A5177, BHI agar, 20-24 h): 0.78 µg/mL (≈ 1.09 µM); MIC ([20]; Staphylococcus aureus, 24 h): 0.2 µg/mL (≈ 0.279 µM) |
